Test results reported in patent US20250206707A1, “NOVEL COMPOUND INDUCING EXPRESSION OF ANTI-AGING GENE KLOTHO” (KLOTHO SCIENCES CO., LTD., priority 2022, published 2025).

Legend:
[1] = test system: intracellular reactive oxygen species (ROS) in renal tubule epithelial cells (RPTECs); assay: Analysis of intracellular reactive oxygen species (ROS) in RPTECs; assay type: cell-based, human; conditions: RPTEC cells, 2.5 µM compound, 6 h; FIG. 4
Method: Renal tubule epithelial cells (RPTECs) were treated with each KS compound of Example 1 to determine the changes in the amount of intracellular reactive oxygen species (ROS).
RPTEC cells in culture were incubated with 2.5 µM of each KS compound for 6 h. The amount of ROS present in the cells was measured by adding Reactive Oxygen Detection Reagents (Invitrogen) and incubating for 1 h. The change in fluorescence was measured using a spectrophotometer.
FIG. 4 is a graph showing the amount of ROS remaining in RPTEC cells. It was confirmed that the amount of ROS in the cells treated with KS103 and KS104 compounds was reduced by about 30% compared to the cells treated with solvent (DMSO) alone.

[2] = test system: human retinal pigment epithelial cells (ARPE); assay: Protective effect on retinal pigment epithelial cells against oxidative stress; assay type: cell-based; conditions: 2.5 μM compound, BSO 50 mM for 6 hours, Cyto X absorbance 450 nm, FIG. 7
Method: To determine the preventive or therapeutic effect of each KS compound of Example 1 on macular degeneration, the protection of retinal pigment epithelial cells against oxidative stress was determined.
First, human retinal pigment epithelial cells were tested using retinal pigment epithelial cells (ARPE) purchased from ATCC, USA. Equal numbers of 10,000 ARPE cells were added to each well, and after 18 hours of incubation, the cells were replaced with DMEM F-12 medium without serum (FBS).
Each KS compound was added at a concentration of 2.5 μM, and the cells were treated with buthionine sulfoximine (BSO) at a concentration of 50 mM for 6 hours to induce oxidative stress. To measure the viability of these cells, Cyto X (Cell viability assay kit) was added and the time-varying absorbance was measured at 450 nm.

[3] = Stability evaluation with human liver microsomes (MS/MS analysis); assay type: in vitro ADME; conditions: human microsomes 0.5 mg/ml, 1 μM compound, 30 min, 37° C., with NADPH; tolbutamide as control; FIG. 1
Method: Each KS compound in Example 1 was dissolved in 10 mM DMSO, and tolbutamide, used as a standard, was dissolved in methanol at a concentration of 10 mM.
In a glass test tube (13×100 mm), 0.1 M KH2PO4 (147.5 μl), 0.1 M MgCl2 (25 μl), and 50 μl of human […] microsomes (mixed-gender pool) at a concentration of 0.5 mg/ml purchased from Corning Life Science and each KS compound solution were mixed to a final 1 μM of each KS compound solution, pre-incubated for 3 min in a shaking water bath (37° C., 40 rpm), and then incubated for 30 min in the presence or absence of 10 mM NADPH, 25 μL.
Aliquots of 50 μl were taken before the reaction and after the reaction, and then the reaction was stopped by adding […] of acetonitrile and vortexed for 1 min. The mixture was centrifuged (4,000 rpm, 4° C.) for 20 minutes, and each supernatant was transferred to a new glass test tube and dried for 2 hours using a centrifugal concentrator. After ensuring complete drying, 200 μl of 40% acetonitrile was added to each glass test tube and resuspended by vortexing for 1 minute. The resuspension solution was centrifuged for 10 minutes (4,000 rpm, 4° C.) and 150 μl of the supernatant was taken for HPLC-UV analysis. The Agilent 1200 series was used for HPLC-UV analysis and the Agilent 6410 was used for MS/MS analysis. The conditions used for the analysis were as follows: […]

[4] = test system: klotho gene; assay: Klotho gene mRNA expression by PCR in RPTECs; assay type: cell-based, human; conditions: 6 hours exposure, FIG. 2
Method: Human renal tubular epithelial cells (RPTECs) were treated with each KS compound of Example 1 at different concentrations, and mRNA was collected from the cells 6 hours later, and the mRNA expression of the klotho gene was confirmed by PCR. Renal Proximal Tubular Epithelial Cells (RPTECs) were purchased from Lonza and cultured at 37° C., 5% CO2 and used in the experiments. Each KS compound was added to the medium of the cells and after 6 hours of exposure, RNA was isolated from the cells and converted to cDNA using reverse transcriptase and amplified by PCR method to determine the expression level. As a control, DMSO was added instead of the compound.
The primers used in the experiment are listed below.
The expression levels of the bands in the gel photographs were quantified using Image J and plotted on a graph. In the gel picture, the upper band represents the secreted form of klotho, and the lower band represents the membrane form of klotho.

[5] = test system: Human retinal epithelial cells (ARPE); assay: Cytotoxicity evaluation (EX-cytox absorbance); assay type: cell-based; conditions: different concentrations, 24 hours incubation, EX-cytox 1 hour, FIG. 3
Method: Human retinal epithelial cells (ARPE) in culture were treated with KS compounds of Example 1 at different concentrations and incubated for 24 hours, followed by a 1-hour reaction with EX-cytox from GOGEN, and the change in absorbance was measured.

[6] = test system: TXN, AKT1, NR4A3, NLRP3, FOXP3 genes; assay: Expression changes in oxidative stress-related genes (NGS) in aged RPTEC cells; assay type: cell-based, human; conditions: 7th passage RPTEC, 2.5 μM, 6 hours, compared with 4-passage RPTEC, FIG. 5, FIG. 6
Method: 2.5 μM of each KS compound of Example 1 was added to relatively aged 7th passage (#7) renal tubular epithelial cells (RPTEC) cells, cultured for 6 hours, mRNA was collected, and total gene expression was analyzed using a next generation sequencer (NGS). To confirm changes in gene expression due to aging, through gene expression comparison with relatively young 4-passage (#4) RPTEC cells, genes with increased expression in young cells (TXN, AKT1, NR4A3, NLRP3, FOXP3 genes) were confirmed. The expression levels of these genes in young cells were compared to the expression change values caused by treatment with the compounds of Example 1 (senescent cells were treated with the compounds of Example 1, respectively).

Row | Structure (SMILES) | reduction of the amount of ROS in the cells compared to cells treated with solvent (DMSO) alone [1] | protection against oxidative stress-induced cell death [2] | microsomal stability [3] | ability to express the klotho gene compared to KS101 as well as other fluorine-bound compounds [4] | expression effect on the klotho gene (mRNA, sum of secreted and membrane form bands) ([4]; different concentrations, Image J quantification) | cytotoxicity [5] | expression of oxidative stress-related genes in aged cells versus young cells [6]
1 | Fc1ccc2nc(Nc3ccc(F)c(F)c3)oc2c1 [KS103, N-(3,4-difluorophenyl)-6-fluorobenzo[d]oxazol-2-amine] | about 30% | inhibited oxidative stress-induced cell death |  |  |  |  | 
2 | Fc1ccc(Nc2nc3cc(F)c(F)cc3o2)cc1F [KS104, N-(3,4-difluorophenyl)-5,6-difluorobenzo[d]oxazol-2-amine] | about 30% | inhibited oxidative stress-induced cell death | best microsomal stability | more than doubled | best expression effect | lowest cytotoxicity | induced to a greater extent than in young cells
